The values below come from patent publication US8481690B2, “Methods for detecting symmetrical dimethylarginine” (IDEXX Laboratories, Inc., priority 2008, dated 2013).

Each structure is given as a SMILES string. Values after ≈ are worked out from the molar mass of the structure shown.

What all share (type): binding
Assay [1] concerns rabbit anti-SDMA antibody in serum, Rabbit # 152 (SDMA conjugated with KLH immunogen). Description: Competitive ELISA, specificity of anti-SDMA antibody, Rabbit # 152. Particulars: Rabbit # 152 (1:5K); for % Cross Reactivity: IC50 of SDMA divided by IC50 of competitor x 100; for IC 50: competition with SDMA-HRP conjugate, absorbance reduced by 50%. Here is the method: (§1) In order to assess the specificity of the antibodies obtained by the procedures described in Example 3 above, their reactivity to SDMA, ADMA, L-arginine, and/or N-methylarginine was measured in a competitive ELISA assay (Table 1).
(§2) ADMA-2HCl, SDMA-2HCl, N-methylarginine acetate (Sigma, Cat. No. M7033) or L-arginine (Sigma, Cat. No. A5006) were each dissolved in PBS to make stock solutions at 1 mg/ml. From these stock solutions, working solutions at 100 μg/ml, 10 μg/m and 1 μg/m were prepared in PBS.
(§3) […] After a 30 minutes incubation period at room temperature, the wells were washed 4 times with PBST (Phosphate Buffered Saline, 0.05% Tween).
(§4) 100 μl of 3,3′,5,5′-Tetramethylbenzidine (commercially available from Promega Corporation of Madison, Wis.) was subsequently added. Following a 30 minutes incubation period at room temperature, 100 μl of stop solution (1 N HCl) was added and the absorbance was measured at […] using a BioTek ELX 808 (Winooski, Vt.) plate reader. The data was subjected to quantification using Softmax software (Molecular Devices, Sunnyvale, Calif.).
(§5) The absorbance values obtained with 0 μg/mL, 1 μg/mL, 10 μg/mL, and 100 μg/mL of ADMA, SDMA, N-methylarginine or L-arginine, respectively, were determined and plotted. The concentration of SDMA at which the absorbance value was reduced by 50% (relative to the maximum absorbance obtained at 0 μg/mL SDMA; i.e. IC50) was divided by each of the concentrations of ADMA, N-methylarginine or L-arginine, respectively, at which the absorbance value was reduced by 50% (IC50). The resulting value was multiplied by 100 to obtain the value “% cross-reactivity”.
A general note: In an ELISA, binding on a coated surface is turned into a signal by an enzyme label.

Assay [2] has as its system rabbit anti-SDMA antibody in serum, Rabbit # 157 (SDMA conjugated with BSA immunogen). Briefly: Competitive ELISA, specificity of anti-SDMA antibody, Rabbit # 157. Particulars: Rabbit # 157 (1:15K); for IC 50: competition with SDMA-HRP conjugate. Here is the method:
as §1, §2, §3, §4, §5

Assay [3] has as its system polyclonal antibody from Rabbit No. 154. Description: Specificity determined with greater stringency, polyclonal antibody from Rabbit No. 154. Particulars: Rabbit No. 154, greater stringency. Here is the method: as §1, §2
(§6) 50 μl of the SDMA-HRP conjugate (as described in Example 5 below), 50 μl of ADMA, SDMA, N-methylarginine or L-arginine (at concentrations from 1-100 μg/ml as described above), and 50 μl of rabbit anti-SDMA antibody in serum (1:3000 titer) were sequentially added to an individual well in a 96-well polystyrene microwell plate, precoated with sheep anti-rabbit IgG (commercially available from Beacon Analytical Systems Inc. of Portland, Me.). After a 30 minutes incubation period at room temperature, the wells were washed 4 times with PBST (Phosphate Buffered Saline, 0.05% Tween).
as §4
The absorbance values obtained with 0 μg/mL, 1 μg/mL, 10 μg/mL, and 100 μg/mL of ADMA, SDMA, N-methylarginine or L-arginine, respectively, were determined and plotted. […]
In another experiment, using only polyclonal antibody from Rabbit No. 154, the specificity of the antibody was determined with greater stringency by the method described above.

The subject of assay [4] is rabbit anti-SDMA antibody in serum, Rabbit # 154 (SDMA conjugated with KLH immunogen). Description: Competitive ELISA, specificity of anti-SDMA antibody, Rabbit # 154. Particulars: Rabbit # 154 (1.25K); for IC 50: competition with SDMA-HRP conjugate. Here is the method: as §1, §2, §3, §4, §5
The test system of assay [5] is rabbit anti-SDMA antibody in serum, Rabbit # 153 (SDMA conjugated with KLH immunogen). Description: Competitive ELISA, specificity of anti-SDMA antibody, Rabbit # 153. Particulars: Rabbit # 153 (1:2.5K); for IC 50: competition with SDMA-HRP conjugate. Here is the method:
as §1, §2, §3, §4, §5

Assay [6] deals with rabbit anti-SDMA antibody in serum, Rabbit # 155 (SDMA conjugated with BSA immunogen). Description: Competitive ELISA, specificity of anti-SDMA antibody, Rabbit # 155. Particulars: Rabbit # 155 (1:3K); for IC 50: competition with SDMA-HRP conjugate. Here is the method: as §1, §2, §6, §4, §5
Assay [7] deals with rabbit anti-SDMA antibody in serum, Rabbit # 156 (SDMA conjugated with BSA immunogen). Briefly: Competitive ELISA, specificity of anti-SDMA antibody, Rabbit # 156. Particulars: Rabbit # 156 (1:20K); for IC 50: competition with SDMA-HRP conjugate. Here is the method:
as §1, §2, §3, §4, §5

With `CN(C)C(=N)NCCCC(N)C(=O)O` (stereo not drawn) [ADMA, asymmetrical dimethylarginine], the “% Cross Reactivity” value in assay [1], in assay [2], in assay [4], in assay [5], in assay [6] and in assay [7] was <1% in each case. The “IC 50” value in assay [1], in assay [2], in assay [4], in assay [5], in assay [6] and in assay [7] was >100 µg/mL throughout. The “Specificity (Cross-Reactivity)” value in assay [3] is recorded as <0.2%.
As for `N=C(N)NCCC[C@H](N)C(=O)O` [L-Arginine, arginine], the “% Cross Reactivity” value in assay [1], in assay [2], in assay [4], in assay [5], in assay [6] and in assay [7] was <1% throughout. Also, the “IC 50” value in assay [1], in assay [2], in assay [4], in assay [5], in assay [6] and in assay [7] was >100 µg/mL throughout. Further, the “Specificity (Cross-Reactivity)” value in assay [3] is recorded as <0.01%.
In the case of `CNC(=N)NCCCC(N)C(=O)O` (stereo not drawn) [N-MMA, N-monomethylarginine], the “% Cross Reactivity” value in assay [1], in assay [2], in assay [4], in assay [5], in assay [6] and in assay [7] was <1% in each case. For the same molecule, the “IC 50” value in assay [1] was >100 µg/mL; in assay [2], >100 µg/mL; in assay [4], >100 µg/mL; in assay [5], >100 µg/mL; in assay [6], 79 µg/mL (≈ 420 µM); in assay [7] it was >100 µg/mL.
In the case of `C/N=C(\NC)NCCCC(N)C(=O)O` (stereo not drawn) [SDMA, symmetrical dimethylarginine], the “% Cross Reactivity” value in assay [1], in assay [2], in assay [4], in assay [5], in assay [6] and in assay [7] was 100% each time. In addition, the “IC 50” value amounted to 1.10 µg/mL (≈ 5.44 µM) in assay [1]; 1.6 µg/mL (≈ 7.91 µM) in assay [2]; 0.49 µg/mL (≈ 2.42 µM) in assay [4]; 0.65 µg/mL (≈ 3.21 µM) in assay [5]; 0.73 µg/mL (≈ 3.61 µM) in assay [6]; 1.3 µg/mL (≈ 6.43 µM) in assay [7]. For the same molecule, the “Specificity (Cross-Reactivity)” value in assay [3] is 100%.
